Data as given in patent publication EP0400609A1, “Intravenous solutions with quick action onset” (CIBA-GEIGY AG, priority 1989, dated 1990).
Like-named read-outs stand apart in the source and are kept apart here.

Experiments:
[1] = test system: Tonische Konvulsionen der Hinterextremitäten; test: Maximal electroshock test in mice; assay type: in vivo, Mäuse; details: for ED50: Mus musculus
From the text: Die akute Schutzwirkung von Carbamazepin nach intravenöser Verabreichung im Vergleich zur oralen wurde mit Hilfe des maximalen Elektroschocks ermittelt. Die folgenden Methoden wurden verwendet: - Elektroschock Test an Ratten: Tonische Konvulsionen […] durch Verabreichung eines Wechselstroms von 50 Hz und 36 mA während 0,63 Sekunden mit Hilfe von Cornealelektroden ausgelöst. Es wurden 10 Ratten pro Dosis und Zeiteinheit verwendet; eine Gruppe diente als Kontrolle. Die Anzahl der Ratten, die keine tonische Konvulsion […], wurde für jede Gruppe bestimmt. Die ED50 wurde mit Hilfe der Regressionsanalyse nach der Methode von Spearman und Kärber berechnet. - Elektroschock Test an Mäusen: Tonische Konvulsionen […] durch Verabreichung eines Wechselstromes von 50 Hz und 18 […] jede Dosis und Zeiteinheit wurden 10 Mäuse verwendet; eine Gruppe diente als Kontrolle. Die Anzahl der Mäuse, die keine tonische Konvulsion […], wurde für jede Gruppe bestimmt. Die ED50 wurde mit Hilfe der Regressionsanalyse nach der Methode von Spearman und Kärber bestimmt.

[2] = test system: Tonische Konvulsionen der Kinterextremitäten; test: Maximal electroshock test in rats; assay type: in vivo, Ratten; details: for ED50: Rattus norvegicus
From the text: Die akute Schutzwirkung von Carbamazepin nach intravenöser Verabreichung im Vergleich zur oralen wurde mit Hilfe des maximalen Elektroschocks ermittelt. Die folgenden Methoden wurden verwendet: - Elektroschock Test an Ratten: Tonische Konvulsionen der Kinterextremitäten wurden durch Verabreichung eines Wechselstroms von 50 Hz und 36 mA während 0,63 Sekunden mit Hilfe von Cornealelektroden ausgelöst. Es wurden 10 Ratten pro Dosis und Zeiteinheit verwendet; eine Gruppe diente als Kontrolle. Die Anzahl der Ratten, die keine tonische Konvulsion der Hinterextremitäten aufwiesen, wurde für jede Gruppe bestimmt. Die ED₅₀ wurde mit Hilfe der Regressionsanalyse nach der Methode von Spearman und Kärber berechnet. - Elektroschock Test an Mäusen: Tonische Konvulsionen der Hinterextremitäten wurden durch Verabreichung eines Wechselstromes von 50 Hz und 18 mA während 0,2 Sekunden mittels Cornealelektroden ausgelöst. Für jede Dosis und Zeiteinheit wurden 10 Mäuse verwendet; eine Gruppe diente als Kontrolle. Die Anzahl der Mäuse, die keine tonische Konvulsion der Hinterextremitäten zeigten, wurde für jede Gruppe bestimmt. Die ED₅₀ wurde mit Hilfe der Regressionsanalyse nach der Methode von Spearman und Kärber bestimmt.

[3] = Dissolution of dry preparations in water; assay type: physicochemical; details: without aids, at 20°C
Protocol: Die unter den Nummern 14 bis 17 hergestellten Trockenpräparate lösen sich ohne Hilfsmittel in weniger als einer Minute bei 20°C in Wasser, während sich mikrokristallisiertes Carbamazepin unter den gleichen Bedingungen nicht löst.

NC(=O)N1c2ccccc2C=Cc2ccccc21 [Carbamazepin, 5H-Dibenz[b,f]azepin-5-carboxamid]
ED50 ([1]; 2.5 min, intravenous, 2,5 min after dosing, read-out: ED₅₀ in mg/kg intravenös Mäuse): 5.4 mg/kg
ED50 ([1]; 5 min, intravenous, 5 min after dosing, read-out: ED₅₀ in mg/kg intravenös Mäuse): 6.2 mg/kg
ED50 ([1]; 5 min, oral, 5 min after dosing, read-out: ED₅₀ in mg/kg oral Mäuse): 22.7 mg/kg
ED50 ([1]; 0.25 h, intravenous, 15 min after dosing, read-out: ED₅₀ in mg/kg intravenös Mäuse): 5.4 mg/kg
ED50 ([1]; 0.25 h, oral, 15 min after dosing, read-out: ED₅₀ in mg/kg oral Mäuse): 22.3 mg/kg
ED50 ([1]; 0.5 h, intravenous, 30 min after dosing, read-out: ED₅₀ in mg/kg intravenös Mäuse): 6.2 mg/kg
ED50 ([1]; 0.5 h, oral, 30 min after dosing, read-out: ED₅₀ in mg/kg oral Mäuse): 10.7 mg/kg
ED50 ([1]; 1 h, intravenous, 60 min after dosing, read-out: ED₅₀ in mg/kg intravenös Mäuse): 9.3 mg/kg
ED50 ([1]; 1 h, oral, 60 min after dosing, read-out: ED₅₀ in mg/kg oral Mäuse): 13 mg/kg
ED50 ([1]; 2 h, intravenous, 120 min after dosing, read-out: ED₅₀ in mg/kg intravenös Mäuse): 15.8 mg/kg
ED50 ([1]; 2 h, oral, 120 min after dosing, read-out: ED₅₀ in mg/kg oral Mäuse): 27 mg/kg
ED50 ([1]; 4 h, intravenous, 240 min after dosing, read-out: ED₅₀ in mg/kg in Mäuse): > 20 mg/kg
Schutzwirkung, % bei 60, oral Mäuse ([1]; oral, 2,5 min after dosing, at 60 (column unit mg/kg), printed in place of an ED₅₀): 10 % bei 60
ED50 ([2]; 2.5 min, intravenous, 2,5 min after dosing, read-out: ED₅₀ in mg/kg intravenös Ratten): 1.9 mg/kg
ED50 ([2]; 2.5 min, oral, 2,5 min after dosing, read-out: ED₅₀ in mg/kg oral Ratten): > 60 mg/kg
ED50 ([2]; 5 min, intravenous, 5 min after dosing, read-out: ED₅₀ in mg/kg intravenös Ratten): 1.6 mg/kg
ED50 ([2]; 5 min, oral, 5 min after dosing, read-out: ED₅₀ in mg/kg oral Ratten): 60 mg/kg
ED50 ([2]; 0.25 h, intravenous, 15 min after dosing, read-out: ED₅₀ in mg/kg intravenös Ratten): 2.5 mg/kg
ED50 ([2]; 0.25 h, oral, 15 min after dosing, read-out: ED₅₀ in mg/kg oral Ratten): 15.4 mg/kg
ED50 ([2]; 0.5 h, intravenous, 30 min after dosing, read-out: ED₅₀ in mg/kg intravenös Ratten): 3 mg/kg
ED50 ([2]; 0.5 h, oral, 30 min after dosing, read-out: ED₅₀ in mg/kg oral Ratten): 9.6 mg/kg
ED50 ([2]; 1 h, intravenous, 60 min after dosing, read-out: ED₅₀ in mg/kg intravenös Ratten): 2.5 mg/kg
ED50 ([2]; 1 h, oral, 60 min after dosing, read-out: ED₅₀ in mg/kg oral Ratten): 10 mg/kg
ED50 ([2]; 2 h, intravenous, 120 min after dosing, read-out: ED₅₀ in mg/kg intravenös Ratten): 4 mg/kg
ED50 ([2]; 2 h, oral, 120 min after dosing, read-out: ED₅₀ in mg/kg oral Ratten): 12.5 mg/kg
Schutzwirkung, % bei 10 mg/kg, Ratten ([2]; intravenous, 240 min after dosing, 10 mg/kg, printed in place of an ED₅₀): 40 % bei 10 mg/kg
Auflösung in Wasser [3]: nicht löst
